Experimental findings from ChEMBL document CHEMBL1156431, “15-deoxyspergualin primarily targets the trafficking of apicoplast proteins in Plasmodium falciparum” (J Biol Chem, 2007) are described below.

Each structure is given as a SMILES string. Calls of active or inactive are those of the source. The rule behind the calls is not given here.

Experiment [1] concerns Plasmodium falciparum. The experiment can be described thus: TufA expression level in Plasmodium falciparum FCK2 first asexual cycle. Format: functional, organism-based.
The subject of experiment [2] is Plasmodium falciparum. Briefly: Growth inhibition as apicoplast copy number of Plasmodium falciparum FCK2 at 100 nM by [3H]hypoxanthine uptake. Format: functional.
A short description of experiment [3]: Inhibition of putrescine transporter-mediated [3H]putrescine transport in human red blood cells. Format: cell-based.
Experiment [4] in a line: Inhibition of putrescine transporter-mediated [3H]putrescine transport in Plasmodium falciparum FCK2 infected human red blood cells.
The subject of experiment [5] is Plasmodium falciparum. Briefly: Inhibition of protein synthesis in Plasmodium falciparum FCK2 by [35S]methionine uptake. The class given is functional, organism-based.
Experiment [6] deals with Plasmodium falciparum. Briefly: Inhibition of fatty acid synthesis in late trophozoite Plasmodium falciparum FCK2 at 1 uM. The class given is functional, organism-based.
In experiment [7] the test system is Plasmodium falciparum. Briefly: Inhibition of fatty acid synthesis in Plasmodium falciparum FCK2 trophozoites at 1 uM. Format: functional, organism-based.
Experiment [8] deals with Plasmodium falciparum. The experiment can be described thus: Decreased processed NEAT protein FabG level in Plasmodium falciparum FCK2 first asexual cycle. The class given is functional, organism-based.
The subject of experiment [9] is Plasmodium falciparum. The experiment can be described thus: Inhibition of fatty acid synthesis in Plasmodium falciparum FCK2 ring stage at 1 uM. Format: functional, organism-based.
The subject of experiment [10] is Plasmodium falciparum. The experiment can be described thus: Inhibition of fatty acid synthesis in Plasmodium falciparum FCK2 shizonts at 1 uM. The class given is functional, organism-based.
For experiment [11], the system named is Plasmodium falciparum. The experiment can be described thus: Antimalarial activity against Plasmodium falciparum FCK2 by [3H]hypoxanthine uptake. The class given is functional, organism-based.
The subject of experiment [12] is Plasmodium falciparum. Briefly: Growth inhibition of Plasmodium falciparum FCK2 as apicoplast copy numbers at 1 uM in [3H]hypoxanthine uptake. The class given is functional.
Experiment [13] is described as follows: Inhibition of spermidine transporter-mediated [3H]spermidine transport in human red blood cells. Format: cell-based.
For experiment [14], the system named is Plasmodium falciparum. Briefly: Inhibition of spermidine transporter-mediated [3H]spermidine transport in Plasmodium falciparum FCK2 infected human red blood cells at 1 mM.
Experiment [15] concerns Plasmodium falciparum. The experiment can be described thus: Antimalarial activity against Plasmodium falciparum FCK2 infected human erythrocytes with exogenous spermidine. Format: functional, organism-based.
Experiment [16] has as its system Plasmodium falciparum. The experiment can be described thus: Antimalarial activity as reduced parasitaemia after 12 hrs against Plasmodium falciparum FCK2 second asexual cycle at 1 uM by [3H]hypoxanthine uptake. Format: functional, organism-based.
Experiment [17] has as its system Plasmodium falciparum. Briefly: Actin expression level in Plasmodium falciparum FCK2. Format: functional, organism-based.
Experiment [18] deals with Plasmodium falciparum. The experiment can be described thus: Inhibition of fatty acid synthesis in Plasmodium falciparum FCK2 trophozoites at 10 uM. The class given is functional, organism-based.

Regarding `CCC[C@@H]1C[C@@H](C(=O)N[C@@H]([C@H]2O[C@H](SC)[C@H](O)[C@@H](O)[C@H]2O)[C@H](C)Cl)N(C)C1` [CLINDAMYCIN], in the experiment with Plasmodium falciparum [1], the outcome was Active. Besides, the Activity in the experiment with Plasmodium falciparum [2] was determined as 0.4.

Take `N=C(N)NCCCCCCC(=O)NC(O)C(=O)NCCCCNCCCN` (centres undefined) [GUSPERIMUS]: the IC50 (in general, the concentration that gives 50% inhibition) was determined as 924 µM in experiment [3]; 1120 µM in experiment [4]; 443 µM with Plasmodium falciparum [5]; 0.148 µM with Plasmodium falciparum [11]; 372 µM in experiment [13]. Besides, the outcome in the experiment with Plasmodium falciparum [6], in the experiment on Plasmodium falciparum [7], in the experiment on Plasmodium falciparum [9], with Plasmodium falciparum [1], with Plasmodium falciparum [14] and with Plasmodium falciparum [16] was inactive. Moreover, in the experiment on Plasmodium falciparum [17], the result was inactive. The outcome in the experiment with Plasmodium falciparum [8], in the experiment with Plasmodium falciparum [10] and in the experiment with Plasmodium falciparum [15] was Active. Besides, the Activity with Plasmodium falciparum [12] is on record as 0.13.

For `Oc1cc(Cl)ccc1Oc1ccc(Cl)cc1Cl`, the result in the experiment with Plasmodium falciparum [18] was Active.
